{
  "source": "patent US12370193B2",
  "about": "“Method of inhibiting TREM-1” (UNIVERSITY OF FLORIDA RESEARCH FOUNDATION, INCORPORATED, priority 2019, dated 2025)",
  "key": {"RORα": {"system": "RORα", "assay": "Gal4-RORα co-transfection promoter-reporter assay", "assay_type": "cell-based", "details": "Gal4 assay format", "procedure": "Reporter gene assays: Twenty-four hours before transfection, HEK293T cells were plated in 96-well plates at a density of 15×10^3 cells per well. UAS:luciferase reporter and Ga14-RORa, Gal4-RORb, Gal4-RORγ, Gal4-LXRα, or Gal4 PPARγ DNA co-transfections were performed using X-tremeGENE 9 (Roche). Twenty-four hours after transfection, the cells were treated with vehicle or compound. Twenty-four hours after treatment, the luciferase activity was measured using the Dual-Glo luciferase assay system (Promega). Results were analyzed using GraphPad Prism software."}, "LXRα LBD": {"molecular_target": "T1, LXRα LBD (Homo sapiens, UniProt Q13133)", "T1 construct": "10 μM of the apo protein (LXRα LBD and PPARγ LBD) was mixed with 1:10 molar excess of ligand", "T1 sequence (Q13133 209-447 limits assumed)": "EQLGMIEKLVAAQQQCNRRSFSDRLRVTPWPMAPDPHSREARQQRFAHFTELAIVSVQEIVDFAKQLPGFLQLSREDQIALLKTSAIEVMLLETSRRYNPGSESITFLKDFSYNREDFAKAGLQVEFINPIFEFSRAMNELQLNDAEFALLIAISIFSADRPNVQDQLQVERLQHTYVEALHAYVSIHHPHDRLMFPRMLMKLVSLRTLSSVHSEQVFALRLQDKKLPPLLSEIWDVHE", "assay": "Differential HDX-MS of LXRα LBD", "assay_type": "binding", "details": "1:10 molar excess of ligand", "procedure": "Hydrogen-deuterium exchange (HDX) detected by mass spectrometry (MS): Solution-phase amide HDX experiments were carried out with a fully automated system (CTC HTS PAL, LEAP Technologies, Carrboro, NC; housed inside a 4° C. cabinet) as described previously with the modifications described below^41.\nPeptide Identification: Peptides were identified using tandem MS (MS/MS) experiments performed with a QExactive (ThermoFisher, San Jose, CA) over a 70 min gradient. Product ion spectra were acquired in a data-dependent mode and the five most abundant ions were selected for the product ion analysis per scan event. […]\nHydrogen/deuterium exchange (HDX) analysis: 10 μM of the apo protein (LXRα LBD and PPARγ LBD) was mixed with 1:10 molar excess of ligand and incubated for 2 hours at 4° C. for complex formation before subjecting them to HDX analysis. […] The intensity weighted mean m/z centroid value of each peptide envelope was calculated and subsequently converted into a percentage of deuterium incorporation. […] In the absence of a fully deuterated control, 100% deuterium incorporation was calculated theoretically, and corrections for back-exchange were made on the basis of an estimated 70% deuterium recovery and accounting for 80% final deuterium concentration in the sample (1:5 dilution in D2O HDX buffer). […]"}, "murine TREM1 promoter": {"system": "murine TREM1 promoter", "assay": "TREM1 promoter reporter (luciferase) assay", "assay_type": "cell-based, Mus musculus", "experimental": "Each LXRβ, PPARγ, and RORγ full length plasmid was co-transfected with TREM1/pGL3 using X-tremeGENE 9 into HEK293T cells. After 48 hrs, luciferase activity was measured using BriteLite plus assay system (PerkinElmer)."}, "OP9 cells": {"system": "OP9 cells", "assay": "Adipogenesis and gene expression in MDI-differentiated OP9 cells", "assay_type": "cell-based", "source_text": "FIGS. 1A to 1E: Pan modulator with poly-pharmacology. […] FIG. 1D is a graph showing PPARγ target genes (aP2 and CD36) expression in OP9 cells with and without MDI (IBMX, dexamethasone, insulin) treatment. […] SR1903 is represented as orange sticks while PPARγ, RORγ, and LXRβ are depicted as blue ribbons respectively. Specific residues driving the interaction labelled and shown as sticks as well. […] FIG. 1F are graphs showing RORγ target genes (IL17A and IL17F) expression in EL4 cells.\nFIG. 5A-5C: PPARγ and RORγ expression during adipogenesis of OP9 cells.\nCell lines: HEK293T cells and EL4 cells (American Type Culture Collection) were maintained in DMEM and RAW264.7 cells (American Type Culture Collection) were maintained in RPMI-1640 with 10% heat inactivated FBS and antibiotics (penicillin, streptomycin; Invitrogen). OP9 cells (American Type Culture collection) were maintained in Alpha minimum essential medium (MEM-alpha) with 20% heat inactivated FBS. Twenty-four hours post-confluence, the OP9 cells were differentiated with IBMX ([…]), dexamethasone (1 μM), Insulin (10 μg/mL) for 48 hrs.\nQuantitative RT-PCR: Total RNA was extracted from EL4 or RAW264.7 cells using RNeasy Plus Micro Kit (Qiagen) and the RNA was reverse transcribed using the ABI reverse transcription kit (Applied Biosystems/Thermo Fisher Scientific, Waltham MA). Quantitative PCR was performed with a 7900HT Fast Real Time PCR System (Applied Biosystems) using SYBR green (Roche)."}, "[1]": {"assay": "Food intake in lean mice and conditioned taste aversion", "assay_type": "in vivo"}, "[2]": {"details": "OP9 cells, MDI plus 5 uM SR1903, compared to MDI treatment alone"}},
  "data": [
    {"smiles": "Cc1cc(CN2CCN(Cc3ccncc3)CC2)ccc1-c1ccc(C(O)(C(F)(F)F)C(F)(F)F)cc1", "note": "[SR1903, 1,1,1,3,3,3-hexafluoro-2-(2′-methyl-4′-((4-(pyridin-4-ylmethyl)piperazin-1-yl)methyl)-[1,1′-biphenyl]-4-yl)propan-2-ol]", "values": [
      {"measurement": "activity on RORα", "setting": "RORα", "result": "lack activity"},
      {"measurement": "deuterium exchange of LXRα LBD", "setting": "LXRα LBD", "result": "makes a direct interaction with the receptor"},
      {"measurement": "effect on TREM1 promoter activity", "setting": "murine TREM1 promoter; co-expression with PPARγ and LXRβ", "result": "little effect"},
      {"measurement": "attenuation of TREM1 promoter activity", "setting": "murine TREM1 promoter; co-expression with RORγ", "result": "~50", "unit": "%"},
      {"measurement": "expression of PPARγ", "setting": "OP9 cells; OP9 adipogenesis", "result": "robustly repressed"},
      {"measurement": "expression of RORγ", "setting": "OP9 cells; OP9 adipogenesis", "result": "no effect"},
      {"measurement": "lipid droplet formation", "setting": "OP9 cells; OP9 cells, MDI in combination with SR1903, 3 days", "result": "suppression of lipid droplet formation"},
      {"measurement": "repression of PPARγ target gene CD36 expression", "setting": "OP9 cells; [2]", "result": 87, "unit": "%"},
      {"measurement": "repression of PPARγ target gene aP2 (FABP4) expression", "setting": "OP9 cells; [2]", "result": 99, "unit": "%"},
      {"measurement": "conditioned taste aversion", "setting": "[1]; 20 mg/kg", "result": "no effect"},
      {"measurement": "food intake", "setting": "[1]; lean mice", "result": "no effect on food intake"}
    ]}
  ]
}
